The text below walks through data of ChEMBL document CHEMBL3991601, “The target landscape of clinical kinase drugs” (Science, 2017).

A word on the Kd: it is the free concentration of one partner at which half of the binding sites on the other are occupied at equilibrium, for simple one-to-one binding.

Test [1] has as its target T1, Cytochrome c1, heme protein, mitochondrial (Homo sapiens, UniProt P08574).
T1 sequence (P08574 whole entry): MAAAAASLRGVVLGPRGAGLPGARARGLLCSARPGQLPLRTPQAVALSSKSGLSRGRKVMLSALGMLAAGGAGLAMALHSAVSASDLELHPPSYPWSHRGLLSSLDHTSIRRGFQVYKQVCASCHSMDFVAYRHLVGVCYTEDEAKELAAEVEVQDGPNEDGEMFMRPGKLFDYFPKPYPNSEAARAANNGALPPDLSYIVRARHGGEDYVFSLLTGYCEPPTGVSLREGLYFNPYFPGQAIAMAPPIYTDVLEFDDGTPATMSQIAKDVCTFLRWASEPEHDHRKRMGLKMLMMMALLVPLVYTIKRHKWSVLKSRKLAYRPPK

Test [2] concerns the target T2, Serine/threonine-protein kinase Nek2 (Homo sapiens, UniProt P51955).
T2 sequence (P51955 whole entry): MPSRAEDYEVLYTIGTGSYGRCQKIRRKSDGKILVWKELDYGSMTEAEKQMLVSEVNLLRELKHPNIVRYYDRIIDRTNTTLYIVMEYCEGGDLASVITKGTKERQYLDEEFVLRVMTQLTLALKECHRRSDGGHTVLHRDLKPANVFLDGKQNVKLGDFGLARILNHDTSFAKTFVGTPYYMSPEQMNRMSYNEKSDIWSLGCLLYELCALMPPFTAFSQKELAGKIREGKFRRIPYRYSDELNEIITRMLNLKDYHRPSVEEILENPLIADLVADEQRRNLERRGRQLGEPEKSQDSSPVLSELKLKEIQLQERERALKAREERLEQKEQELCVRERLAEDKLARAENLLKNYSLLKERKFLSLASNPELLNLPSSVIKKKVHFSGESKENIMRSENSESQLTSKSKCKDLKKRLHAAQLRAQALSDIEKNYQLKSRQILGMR

Test [3] has as its target Elongation factor Tu, mitochondrial (Homo sapiens, UniProt P49411).
Test [4] deals with T3, Serine/threonine-protein kinase ICK (Homo sapiens, UniProt Q9UPZ9).
T3 sequence (Q9UPZ9 whole entry): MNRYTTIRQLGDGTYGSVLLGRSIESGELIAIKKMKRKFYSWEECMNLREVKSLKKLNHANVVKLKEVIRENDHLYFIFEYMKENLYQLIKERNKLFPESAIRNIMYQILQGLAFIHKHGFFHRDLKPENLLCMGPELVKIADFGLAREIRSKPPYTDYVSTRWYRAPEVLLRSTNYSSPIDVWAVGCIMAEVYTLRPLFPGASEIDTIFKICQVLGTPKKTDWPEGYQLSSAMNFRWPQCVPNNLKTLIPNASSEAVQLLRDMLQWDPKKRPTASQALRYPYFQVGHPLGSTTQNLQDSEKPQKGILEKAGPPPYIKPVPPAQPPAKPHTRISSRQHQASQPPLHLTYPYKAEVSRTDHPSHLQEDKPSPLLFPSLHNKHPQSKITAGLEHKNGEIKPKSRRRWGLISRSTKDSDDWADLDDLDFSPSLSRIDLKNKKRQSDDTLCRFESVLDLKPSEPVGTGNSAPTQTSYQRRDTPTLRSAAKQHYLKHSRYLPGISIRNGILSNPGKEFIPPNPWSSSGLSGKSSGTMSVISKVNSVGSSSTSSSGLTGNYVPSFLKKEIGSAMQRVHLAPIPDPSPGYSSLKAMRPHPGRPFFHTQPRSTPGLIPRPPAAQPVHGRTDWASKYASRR

For test [5], the target named is TGF-beta receptor type-2 (Homo sapiens, UniProt P37173).
For test [6], the target named is Tyrosine-protein kinase BTK (Homo sapiens, UniProt Q06187).
The target of test [7] is Receptor-interacting serine/threonine-protein kinase 2 (Homo sapiens, UniProt O43353).
The target in test [8] is Casein kinase I isoform alpha (Homo sapiens, UniProt P48729).
The target in test [9] is Myosin light chain kinase, smooth muscle (Homo sapiens, UniProt Q15746).
In test [10] the target is AP2-associated protein kinase 1 (Homo sapiens, UniProt Q2M2I8).

Where a name gives a salt, the structure may show the parent alone. The source made the active and inactive calls. Cut-off read from the data, not from the text of the source, for most assays here: actives have a measured Kd and inactives only a lower limit. Bounds are passed on as bounds.
Note: in the data inactive means no Kd found up to 30 µM.

Chain of Tyrosine-protein kinase BTK (Q06187 whole entry): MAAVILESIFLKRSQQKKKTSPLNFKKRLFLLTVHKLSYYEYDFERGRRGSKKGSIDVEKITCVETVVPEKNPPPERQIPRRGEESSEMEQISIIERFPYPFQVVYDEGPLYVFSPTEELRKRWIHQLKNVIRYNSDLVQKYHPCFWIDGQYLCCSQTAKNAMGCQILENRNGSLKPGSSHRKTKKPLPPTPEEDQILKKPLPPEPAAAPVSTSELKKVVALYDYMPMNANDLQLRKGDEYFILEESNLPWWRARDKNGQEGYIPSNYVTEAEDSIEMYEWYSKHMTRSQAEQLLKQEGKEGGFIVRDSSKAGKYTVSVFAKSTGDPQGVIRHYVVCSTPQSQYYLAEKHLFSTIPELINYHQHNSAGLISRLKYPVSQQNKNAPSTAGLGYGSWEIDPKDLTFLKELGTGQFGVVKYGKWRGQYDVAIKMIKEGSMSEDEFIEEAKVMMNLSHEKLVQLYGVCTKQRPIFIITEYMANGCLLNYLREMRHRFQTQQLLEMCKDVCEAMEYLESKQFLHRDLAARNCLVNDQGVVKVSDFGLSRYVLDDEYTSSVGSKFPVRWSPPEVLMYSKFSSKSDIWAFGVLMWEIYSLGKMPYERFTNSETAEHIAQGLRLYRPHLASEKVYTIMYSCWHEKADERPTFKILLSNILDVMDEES
Chain of Casein kinase I isoform alpha (P48729 whole entry, canonical isoform): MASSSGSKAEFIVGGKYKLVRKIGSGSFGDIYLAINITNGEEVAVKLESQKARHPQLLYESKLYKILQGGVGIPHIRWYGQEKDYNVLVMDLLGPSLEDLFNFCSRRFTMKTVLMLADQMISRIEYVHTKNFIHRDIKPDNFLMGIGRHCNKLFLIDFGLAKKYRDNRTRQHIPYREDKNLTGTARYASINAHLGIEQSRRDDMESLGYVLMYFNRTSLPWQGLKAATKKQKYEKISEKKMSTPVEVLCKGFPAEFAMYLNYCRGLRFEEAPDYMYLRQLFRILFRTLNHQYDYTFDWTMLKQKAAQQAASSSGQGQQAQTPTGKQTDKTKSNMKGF
Chain of TGF-beta receptor type-2 (P37173 whole entry): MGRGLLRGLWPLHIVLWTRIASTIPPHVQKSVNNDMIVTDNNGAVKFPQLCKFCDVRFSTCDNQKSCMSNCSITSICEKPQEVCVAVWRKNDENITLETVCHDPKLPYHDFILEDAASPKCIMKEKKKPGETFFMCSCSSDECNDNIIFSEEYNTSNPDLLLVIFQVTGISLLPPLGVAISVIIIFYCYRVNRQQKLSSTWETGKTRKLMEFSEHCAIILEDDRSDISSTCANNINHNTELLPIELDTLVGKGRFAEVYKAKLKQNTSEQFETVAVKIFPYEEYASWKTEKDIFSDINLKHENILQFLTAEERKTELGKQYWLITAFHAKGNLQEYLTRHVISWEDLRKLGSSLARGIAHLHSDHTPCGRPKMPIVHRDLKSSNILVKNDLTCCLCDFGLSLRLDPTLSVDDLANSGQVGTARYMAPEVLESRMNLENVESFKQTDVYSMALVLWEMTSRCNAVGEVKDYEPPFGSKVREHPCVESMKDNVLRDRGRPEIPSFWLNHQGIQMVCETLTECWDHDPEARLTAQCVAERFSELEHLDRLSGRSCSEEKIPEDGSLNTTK
Chain of Myosin light chain kinase, smooth muscle (Q15746 whole entry): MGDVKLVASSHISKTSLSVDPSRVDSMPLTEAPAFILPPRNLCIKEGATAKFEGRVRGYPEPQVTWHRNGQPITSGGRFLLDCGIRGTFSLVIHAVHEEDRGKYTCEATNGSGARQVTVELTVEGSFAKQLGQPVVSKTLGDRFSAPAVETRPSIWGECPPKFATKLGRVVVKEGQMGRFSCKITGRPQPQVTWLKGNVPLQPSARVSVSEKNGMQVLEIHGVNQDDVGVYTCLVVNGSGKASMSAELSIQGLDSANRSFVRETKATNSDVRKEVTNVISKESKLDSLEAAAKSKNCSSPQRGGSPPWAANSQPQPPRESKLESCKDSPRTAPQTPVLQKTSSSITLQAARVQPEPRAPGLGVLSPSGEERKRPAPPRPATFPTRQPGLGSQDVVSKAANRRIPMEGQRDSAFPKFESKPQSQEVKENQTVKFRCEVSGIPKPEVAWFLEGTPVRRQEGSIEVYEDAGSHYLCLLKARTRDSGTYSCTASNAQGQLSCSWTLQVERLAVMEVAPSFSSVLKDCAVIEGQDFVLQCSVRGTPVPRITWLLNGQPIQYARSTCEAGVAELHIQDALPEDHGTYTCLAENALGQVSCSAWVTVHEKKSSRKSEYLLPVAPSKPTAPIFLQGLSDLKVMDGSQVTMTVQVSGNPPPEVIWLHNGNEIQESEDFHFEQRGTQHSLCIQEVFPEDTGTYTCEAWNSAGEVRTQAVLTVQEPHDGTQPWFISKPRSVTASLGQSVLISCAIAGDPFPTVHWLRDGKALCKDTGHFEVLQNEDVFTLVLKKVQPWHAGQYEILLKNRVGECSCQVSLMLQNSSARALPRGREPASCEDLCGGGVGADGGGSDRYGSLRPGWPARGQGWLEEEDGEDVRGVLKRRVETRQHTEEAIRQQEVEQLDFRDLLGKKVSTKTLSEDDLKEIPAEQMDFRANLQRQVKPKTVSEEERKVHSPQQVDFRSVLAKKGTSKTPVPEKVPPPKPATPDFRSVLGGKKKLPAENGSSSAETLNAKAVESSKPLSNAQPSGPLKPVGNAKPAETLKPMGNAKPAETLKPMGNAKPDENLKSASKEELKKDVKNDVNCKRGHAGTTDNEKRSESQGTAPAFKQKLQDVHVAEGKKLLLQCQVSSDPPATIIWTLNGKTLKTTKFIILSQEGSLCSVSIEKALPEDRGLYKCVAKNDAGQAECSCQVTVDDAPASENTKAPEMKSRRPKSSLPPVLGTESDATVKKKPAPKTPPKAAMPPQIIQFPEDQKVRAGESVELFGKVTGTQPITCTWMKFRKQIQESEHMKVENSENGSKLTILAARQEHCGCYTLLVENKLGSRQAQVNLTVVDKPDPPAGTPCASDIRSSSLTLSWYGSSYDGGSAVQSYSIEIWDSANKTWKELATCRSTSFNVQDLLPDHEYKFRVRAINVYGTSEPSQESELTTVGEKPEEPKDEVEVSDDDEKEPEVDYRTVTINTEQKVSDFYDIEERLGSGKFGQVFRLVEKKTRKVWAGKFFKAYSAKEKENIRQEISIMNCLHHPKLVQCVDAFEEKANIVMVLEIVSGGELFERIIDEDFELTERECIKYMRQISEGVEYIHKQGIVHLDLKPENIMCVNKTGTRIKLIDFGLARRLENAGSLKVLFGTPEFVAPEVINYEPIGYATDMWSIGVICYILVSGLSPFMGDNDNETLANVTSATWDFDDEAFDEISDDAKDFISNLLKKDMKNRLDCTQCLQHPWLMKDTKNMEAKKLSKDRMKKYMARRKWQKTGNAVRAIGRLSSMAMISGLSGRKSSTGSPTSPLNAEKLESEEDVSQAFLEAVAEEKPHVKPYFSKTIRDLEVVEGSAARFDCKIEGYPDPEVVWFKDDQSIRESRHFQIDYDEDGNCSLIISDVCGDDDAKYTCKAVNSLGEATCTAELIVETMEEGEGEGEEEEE
Chain of AP2-associated protein kinase 1 (Q2M2I8 whole entry): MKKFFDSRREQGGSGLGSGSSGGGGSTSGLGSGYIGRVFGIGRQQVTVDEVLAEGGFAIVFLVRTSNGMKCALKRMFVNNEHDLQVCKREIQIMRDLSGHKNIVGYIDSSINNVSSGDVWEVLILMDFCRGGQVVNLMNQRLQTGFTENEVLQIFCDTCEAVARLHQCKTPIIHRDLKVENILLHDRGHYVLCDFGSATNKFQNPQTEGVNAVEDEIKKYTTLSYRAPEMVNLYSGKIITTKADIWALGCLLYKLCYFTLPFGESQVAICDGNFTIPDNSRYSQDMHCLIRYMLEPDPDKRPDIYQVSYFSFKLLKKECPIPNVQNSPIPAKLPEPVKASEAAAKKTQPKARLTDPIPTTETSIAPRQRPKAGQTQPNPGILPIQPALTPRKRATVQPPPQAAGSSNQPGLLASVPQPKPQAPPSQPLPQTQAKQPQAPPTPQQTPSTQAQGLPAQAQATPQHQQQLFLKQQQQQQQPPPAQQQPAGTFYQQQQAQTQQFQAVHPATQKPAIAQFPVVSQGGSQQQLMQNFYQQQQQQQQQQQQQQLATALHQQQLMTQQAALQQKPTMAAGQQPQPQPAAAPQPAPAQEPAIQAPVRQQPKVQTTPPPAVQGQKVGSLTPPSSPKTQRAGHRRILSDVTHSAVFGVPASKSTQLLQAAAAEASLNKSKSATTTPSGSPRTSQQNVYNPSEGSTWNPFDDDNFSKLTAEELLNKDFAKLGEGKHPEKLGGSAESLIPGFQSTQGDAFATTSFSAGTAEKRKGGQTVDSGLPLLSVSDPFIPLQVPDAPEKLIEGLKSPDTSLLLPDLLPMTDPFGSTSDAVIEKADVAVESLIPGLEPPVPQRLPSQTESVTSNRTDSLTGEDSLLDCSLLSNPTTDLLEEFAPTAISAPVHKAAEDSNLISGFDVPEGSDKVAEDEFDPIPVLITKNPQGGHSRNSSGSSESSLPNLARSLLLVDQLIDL
Chain of Receptor-interacting serine/threonine-protein kinase 2 (O43353 whole entry, canonical isoform): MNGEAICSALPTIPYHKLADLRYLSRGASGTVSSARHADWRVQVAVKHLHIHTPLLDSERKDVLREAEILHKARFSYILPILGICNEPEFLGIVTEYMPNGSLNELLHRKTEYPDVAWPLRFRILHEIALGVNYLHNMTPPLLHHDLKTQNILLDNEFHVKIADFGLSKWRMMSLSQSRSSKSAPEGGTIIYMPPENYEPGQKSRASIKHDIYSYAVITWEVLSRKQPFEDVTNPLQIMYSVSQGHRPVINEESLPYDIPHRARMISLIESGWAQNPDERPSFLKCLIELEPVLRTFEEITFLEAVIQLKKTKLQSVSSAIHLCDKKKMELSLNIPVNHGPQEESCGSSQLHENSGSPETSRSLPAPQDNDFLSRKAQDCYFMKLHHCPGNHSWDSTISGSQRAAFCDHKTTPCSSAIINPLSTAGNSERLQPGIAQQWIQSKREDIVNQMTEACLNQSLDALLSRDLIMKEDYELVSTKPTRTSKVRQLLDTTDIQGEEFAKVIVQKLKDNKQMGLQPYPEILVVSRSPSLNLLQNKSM

For the compound `COCC(=O)NC/C=C/c1ccc2ncnc(Nc3ccc(Oc4ccc(C)nc4)c(C)c3)c2c1` [CP-724714], the Kd in [1], in test [2], in test [3], in test [4], in [5] and in test [6] was > 30 µM (inactive) throughout. Further, the Kd in test [7], in test [8], in [9] and in test [10] was > 30 µM (inactive) each time.

For `C#Cc1cccc(Nc2ncnc3cc(OC)c(OCCCCCCC(=O)NO)cc23)c1` [CUDC-101], the Kd in test [1], in test [2], in test [3], in [4], in [5] and in test [6] was > 30 µM (inactive) throughout. Further, the Kd in [7] is 1.09 µM (active); in test [8], > 30 µM (inactive); in [9], > 30 µM (inactive); in test [10], > 30 µM (inactive).

With `CCS(=O)(=O)N1CCN(c2ccc(Nc3ncc(C(N)=O)c(NC4CC4)n3)cc2)CC1` [Cerdulatinib Hydrochloride], the Kd in test [1], in test [2], in test [3], in test [4], in test [5] and in test [6] was > 30 µM (inactive) in each case. In addition, the Kd in test [7] is > 30 µM (inactive); in test [8], > 30 µM (inactive); in test [9] it was > 30 µM (inactive); in [10], 0.001 µM (active).

Consider `O=C(Nc1nc2cccc(-c3ccc(CN4CCS(=O)(=O)CC4)cc3)n2n1)C1CC1` [FILGOTINIB], for which the Kd in test [1], in [2], in test [3], in [4], in test [5] and in test [6] was > 30 µM (inactive) each time. The Kd was > 30 µM (inactive) in test [7], > 30 µM (inactive) in [8], > 30 µM (inactive) in [9] and 4.99 µM (active) in test [10].

Consider `COc1ccc(S(=O)(=O)N(C(C)=O)c2ccccc2/C=C/c2cc[n+]([O-])cc2)cc1` [HMN-214], for which the Kd in test [1], in test [2], in test [3], in test [4], in test [5] and in test [6] was > 30 µM (inactive) in each case. Further, the Kd in test [7], in test [8], in test [9] and in [10] was > 30 µM (inactive) each time.

Regarding `CNC(=O)c1nn(C)c2c1C(C)(C)Cc1cnc(Nc3ccc(N4CCN(C)CC4)cc3)nc1-2` [MILCICLIB], the Kd in [1] was > 30 µM (inactive); in [2], > 30 µM (inactive); in [3] it was > 30 µM (inactive); in test [4], 0.863 µM (active); in test [5], > 30 µM (inactive); in test [6], > 30 µM (inactive). Also, the Kd in test [7] was > 30 µM (inactive); in test [8] it was 0.995 µM (active); in test [9], > 30 µM (inactive); in test [10], 7.41 µM (active).

For the compound `NC1(c2ccc(-c3nc4ccn5c(=O)[nH]nc5c4cc3-c3ccccc3)cc2)CCC1` [MK-2206], the Kd in [1], in test [2], in test [3], in test [4], in test [5] and in test [6] was > 30 µM (inactive) each time. For the same compound, the Kd in test [7], in test [8], in test [9] and in test [10] was > 30 µM (inactive) in each case.

For the compound `Cn1cc(-c2cnc3ccc4ccc(CS(=O)(=O)NCc5ccccn5)cc4c(=O)c3c2)cn1` [MK-8033], the Kd in test [1], in [2], in [3], in test [4], in test [5] and in [6] was > 30 µM (inactive) in each case. Further, the Kd in test [7], in test [8], in test [9] and in [10] was > 30 µM (inactive) each time.

Regarding `FC(F)(F)c1ccc(/C=C/c2nc(COc3ccc(CCCCn4ccnn4)cc3)co2)cc1` [MUBRITINIB], the Kd in test [1], in test [2], in test [3], in test [4], in test [5] and in test [6] was > 30 µM (inactive) throughout. Moreover, the Kd in test [7], in test [8], in test [9] and in [10] was > 30 µM (inactive) in each case.

With `COc1ncc(-c2ccc3nccc(-c4ccnnc4)c3c2)cc1NS(=O)(=O)c1ccc(F)cc1F` [OMIPALISIB], the Kd in test [1], in test [2], in test [3], in [4], in [5] and in test [6] was > 30 µM (inactive) in each case. The Kd in test [7], in test [8], in [9] and in test [10] was > 30 µM (inactive) each time.

In the case of `Cc1nc(Nc2n[nH]c3c2CN(C(=O)N[C@H](CN(C)C)c2ccccc2)C3(C)C)c2sccc2n1` [PF-03758309], the Kd in test [1] is > 30 µM (inactive); in [2], > 30 µM (inactive); in test [3], > 30 µM (inactive); in test [4] it was 0.237 µM; in [5], > 30 µM (inactive); in [6] it was 1.23 µM. For the same compound, the Kd is > 30 µM (inactive) in test [7], > 30 µM (inactive) in [8], > 30 µM (inactive) in test [9] and 3.04 µM (active) in [10].

In the case of `Cc1cnc(NC(=O)Nc2cc(Br)c(C)cc2OC[C@@H]2CNCCO2)cn1` [RABUSERTIB], the Kd in test [1], in test [2], in test [3], in test [4], in test [5] and in [6] was > 30 µM (inactive) each time. Further, the Kd in test [7], in [8], in test [9] and in test [10] was > 30 µM (inactive) throughout.

For the compound `CNC(=O)c1cc(Oc2ccc(NC(=O)Nc3cc(C(C)(C)C)nn3-c3ccc4ncccc4c3)c(F)c2)ccn1` [REBASTINIB], the Kd is > 30 µM (inactive) in [1]; > 30 µM (inactive) in test [2]; > 30 µM (inactive) in [3]; > 30 µM (inactive) in test [4]; > 30 µM (inactive) in test [5]; 1.22 µM (active) in test [6]. Also, the Kd in test [7] is > 30 µM (inactive); in test [8], > 30 µM (inactive); in test [9], 2.18 µM (active); in test [10] it was > 30 µM (inactive).
